Results published in patent US9469615B2, “Quinoxalines and AZA-quinoxalines as CRTH2 receptor modulators” (Merck Sharp & Dohme Corp., priority 2010, dated 2016).
pKi: −log10 of the molar value.

Target: T1, hCRTH2 (Homo sapiens, UniProt Q9Y5Y4)
T1 construct: expressed in transfected cells; host or cells: HEK (human embryonic kidney) cells expressing hCRTH2; membrane preparation
T1 sequence (Q9Y5Y4 1-395): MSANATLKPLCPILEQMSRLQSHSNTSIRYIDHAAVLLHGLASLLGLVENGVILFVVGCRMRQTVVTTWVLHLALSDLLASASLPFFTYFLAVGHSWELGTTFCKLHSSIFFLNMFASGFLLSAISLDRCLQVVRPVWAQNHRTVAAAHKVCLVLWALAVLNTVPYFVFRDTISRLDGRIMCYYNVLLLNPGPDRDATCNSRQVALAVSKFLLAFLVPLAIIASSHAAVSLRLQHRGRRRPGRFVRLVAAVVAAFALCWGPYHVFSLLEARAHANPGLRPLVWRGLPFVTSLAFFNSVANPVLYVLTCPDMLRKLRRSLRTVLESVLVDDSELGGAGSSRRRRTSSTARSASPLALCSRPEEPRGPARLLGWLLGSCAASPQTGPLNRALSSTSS
Test: Radioligand binding assay ([3H]PGD2 competition, HEK-hCRTH2 membranes)
Settings: [3H]PGD2 binding
Experimental: Biological Assays Radioligand Binding Assay.
Radioligand binding assays were performed at room temperature in 50 mM Tris-HCl pH 7.4, 1 mM EDTA containing 2 mM MnCl2 and 3.0 nM [^3H]PGD2 (New England Nuclear, Boston, Mass.) (171 Ci mmol^−1), in a final volume of 0.2 mL. Competing ligands were diluted in dimethylsulfoxide (Me2SO) that was kept constant at 1% (v/v) of the final incubation volume. The reaction was initiated by the addition of 8-20 μg of membrane protein prepared from a human embryonic kidney (HEK)-hCRTH2 cell line. Total and non-specific binding were determined in the absence and the presence of 10 μM PGD2, respectively. […] The reaction was routinely conducted for 60 min at room temperature and terminated by rapid filtration through prewetted (0.3% polyethyleneimine) 96-well printed Filtermate™ (Wallac) using a Tomtec® harvester (Hamden, Conn.). After washing with cold buffer, the filter was dried for 2 minutes in microwave, and Meltilex Scintillator sheet (Wallac) was melted on for 2 min. The radioactivity was measured with Betaplate model 1205 (Wallac).

SMILES | pKi (rated A-E (Table A)) | pKi (values in text)
O=C(O)CCCCc1nc2cc(C(=O)N3CCCC3c3ccccc3)ccc2nc1-c1ccccc1 (centres unmarked) [15AL, 5-{3-phenyl-7-[(2-phenylpyrrolidin-1-yl)carbonyl]quinoxalin-2-yl}pentanoic acid] | 8.70 to 10.00 | –
O=C(O)CCCCc1nc2cc(C(=O)NC3(c4ccccc4)CCC3)ccc2nc1-c1ccccc1 [15AM, 5-{3-phenyl-7-[(1-phenylcyclobutyl)carbamoyl]quinoxalin-2-yl}pentanoic acid] | 7.70 to 8.68 | –
O=C(O)CCCCc1nc2cc(C(=O)N3CCN(c4ccccc4)CC3)ccc2nc1-c1ccccc1 [15AN, 5-{3-phenyl-7-[(4-phenylpiperazin-1-yl)carbonyl]quinoxalin-2-yl}pentanoic acid] | 7.70 to 8.68 | –
O=C(O)CCCCc1nc2cc(C(=O)N3CCc4ccccc4C3)ccc2nc1-c1ccccc1 [15AP, 5-[7-(3,4-dihydroisoquinolin-2(1H)-ylcarbonyl)-3-phenylquinoxalin-2-yl]pentanoic acid] | 7.70 to 8.68 | –
O=C(O)CCCCc1nc2cc(C(=O)NC3c4ccccc4CC3O)ccc2nc1-c1ccccc1 (centres unmarked) [15AQ, 5-{7-[(2-hydroxy-2,3-dihydro-1H-inden-1-yl)carbamoyl]-3-phenylquinoxalin-2-yl}pentanoic acid] | 7.70 to 8.68 | –
O=C(O)CCCCc1nc2cc(C(=O)NC3CCCc4ccccc43)ccc2nc1-c1ccccc1 (centres unmarked) [15AR, 5-[3-phenyl-7-(1,2,3,4-tetrahydronaphthalen-1-ylcarbamoyl)quinoxalin-2-yl]pentanoic acid] | 8.70 to 10.00 | 8.80
CCNC(=O)c1ccc2nc(-c3ccccc3)c(CCCCC(=O)O)nc2c1 [15AS, 5-[7-(ethylcarbamoyl)-3-phenylquinoxalin-2-yl]pentanoic acid] | 7.70 to 8.68 | –
O=C(O)CCCCc1nc2cc(C(=O)NC3CCc4ccccc43)ccc2nc1-c1ccccc1 (centres unmarked) [15AT, 5-[7-(2,3-dihydro-1H-inden-1-ylcarbamoyl)-3-phenylquinoxalin-2-yl]pentanoic acid] | 8.70 to 10.00 | –
COc1ccc(C(C)NC(=O)c2ccc3nc(-c4ccccc4)c(CCCCC(=O)O)nc3c2)cc1 (centres unmarked) [15AU, 5-(7-{[1-(4-methoxyphenyl)ethyl]carbamoyl}-3-phenyl-quinoxalin-2-yl) pentanoic acid] | 7.70 to 8.68 | –
O=C(O)CCCCc1nc2cc(C(=O)NCc3ccc(OC(F)(F)F)cc3)ccc2nc1-c1ccccc1 [15AV, 5-(3-phenyl-7-{[4-(trifluoromethoxy)benzyl]carbamoyl}quinoxalin-2-yl)pentanoic acid] | 8.70 to 10.00 | –
Cc1ccc(CNC(=O)c2ccc3nc(-c4ccccc4)c(CCCCC(=O)O)nc3c2)cc1 [15AW, 5-{7-[(4-methylbenzyl)carbamoyl]-3-phenylquinoxalin-2-yl}pentanoic acid] | 8.70 to 10.00 | –
C[C@@H](NC(=O)c1ccc2nc(-c3ccccc3)c(CCCCC(=O)O)nc2c1)c1ccc(Cl)cc1 [15AX, 5-(7-{[(1R)-1-(4-chlorophenyl)ethyl]carbamoyl}-3-phenyl-quinoxalin-2-yl)pentanoic acid] | 7.70 to 8.68 | 8.52
Cc1ccc([C@@H](C)NC(=O)c2ccc3nc(-c4ccccc4)c(CCCCC(=O)O)nc3c2)cc1 [15AY, 5-(7-{[(1R)-1-(4-methylphenyl)ethyl]carbamoyl}-3-phenyl-quinoxalin-2-yl)pentanoic acid] | 7.70 to 8.68 | –
CCc1ccc(CNC(=O)c2ccc3nc(-c4ccccc4)c(CCCCC(=O)O)nc3c2)cc1 [15AZ, 5-{7-[(4-ethylbenzyl)carbamoyl]-3-phenylquinoxalin-2-yl}pentanoic acid] | 7.70 to 8.68 | –
O=C(O)CCCCc1nc2cc(C(=O)N3CCC(c4ccccc4)CC3)ccc2nc1-c1ccccc1 [15Ai, 5-{3-phenyl-7-[(4-phenylpiperidin-1-yl)carbonyl]quinoxalin-2-yl}pentanoic acid] | 8.70 to 10.00 | 8.72
CN(Cc1ccccc1)C(=O)c1ccc2nc(-c3ccccc3)c(CCCCC(=O)O)nc2c1 [15Ao, 5-{7-[benzyl(methyl)carbamoyl]-3-phenylquinoxalin-2-yl}pentanoic acid] | 8.70 to 10.00 | 9.00
C[C@H](NC(=O)c1ccc2nc(-c3ccccc3)c(CCCCC(=O)O)nc2c1)c1ccccc1 [15B, 5-(3-phenyl-7-{[(1S)-1-phenylethyl]carbamoyl}quinoxalin-2-yl) pentanoic acid] | 7.70 to 8.68 | –
COc1ccc(CNC(=O)c2ccc3nc(-c4ccccc4)c(CCCCC(=O)O)nc3c2)cc1 [15BA, 5-{7-[(4-methoxybenzyl)carbamoyl]-3-phenylquinoxalin-2-yl}pentanoic acid] | 8.70 to 10.00 | –
N#Cc1ccc(CNC(=O)c2ccc3nc(-c4ccccc4)c(CCCCC(=O)O)nc3c2)cc1 [15BB, 5-{7-[(4-cyanobenzyl)carbamoyl]-3-phenylquinoxalin-2-yl}pentanoic acid] | 7.70 to 8.68 | –

Further lines, results first:

pKi (rated A-E (Table A)) | pKi (values in text) | SMILES
7.70 to 8.68 | – | Cc1ccc([C@H](C)NC(=O)c2ccc3nc(-c4ccccc4)c(CCCCC(=O)O)nc3c2)cc1 [15BC, 5-(7-{[(1S)-1-(4-methylphenyl)ethyl]carbamoyl}-3-phenylquinoxalin-2-yl)pentanoic acid]
7.70 to 8.68 | – | CC(NC(=O)c1ccc2nc(-c3ccccc3)c(CCCCC(=O)O)nc2c1)c1ccc(OC(F)(F)F)cc1 (centres unmarked) [15BD, 5-[3-phenyl-7-({1-[4-(trifluoromethoxy)phenyl]ethyl}carbamoyl)quinoxalin-2-yl] pentanoic acid]
7.70 to 8.68 | – | O=C(O)CCCCc1nc2cc(C(=O)N3CCCC3)ccc2nc1-c1ccccc1 [15BE, 5-[3-phenyl-7-(pyrrolidin-1-ylcarbonyl)quinoxalin-2-yl]pentanoic aicd]
7.70 to 8.68 | – | O=C(O)CCCCc1nc2cc(C(=O)N3CCCCC3)ccc2nc1-c1ccccc1 [15BF, 5-[3-phenyl-7-(piperidin-1-ylcarbonyl)quinoxalin-2-yl] pentanoic acid]
7.70 to 8.68 | – | CNC(=O)c1ccc2nc(-c3ccccc3)c(CCCCC(=O)O)nc2c1 [15BG, 5-[7-(methylcarbamoyl)-3-phenylquinoxalin-2-yl]pentanoic acid]
7.70 to 8.68 | – | CC(NC(=O)c1ccc2nc(-c3ccccc3)c(CCCCC(=O)O)nc2c1)c1ccccc1F (centres unmarked) [15BH, 5-(7-{[1-(2-fluorophenyl)ethyl]carbamoyl}-3-phenylquinoxalin-2-yl)pentanoic acid]
7.70 to 8.68 | – | CON(C)C(=O)c1ccc2nc(-c3ccccc3)c(CCCCC(=O)O)nc2c1 [15BJ, 5-{7-[methoxy(methyl)carbamoyl]-3-phenylquinoxalin-2-yl}pentanoic acid]
8.70 to 10.00 | – | O=C(O)CCCCc1nc2cc(C(=O)NC3Cc4ccccc4C3)ccc2nc1-c1ccccc1 [15BK, 5-[7-(2,3-dihydro-1H-inden-2-ylcarbamoyl)-3-phenylquinoxalin-2-yl]pentanoic acid]
6.70 to 7.70 | 7.16 | C[C@@H](NC(=O)c1ccc2nc(-c3ccccc3)c(CCCCC(=O)O)nc2c1)c1ccccc1C(F)(F)F [15BL, 5-[3-phenyl-7-({(1R)-1-[2-(trifluoromethyl)phenyl]ethyl}carbamoyl)quinoxalin-2-yl]pentanoic acid]
7.70 to 8.68 | – | C[C@H](NC(=O)c1ccc2nc(-c3ccccc3)c(CCCCC(=O)O)nc2c1)c1ccc(Cl)cc1 [15BM, 5-(7-{[(1S)-1-(4-chlorophenyl)ethyl]carbamoyl}-3-phenylquinoxalin-2-yl)pentanoic acid]
7.70 to 8.68 | – | O=C(O)CCCCc1nc2cc(C(=O)NCCCN3CCCC3=O)ccc2nc1-c1ccccc1 [15BN, 5-(7-{[3-(2-oxopyrrolidin-1-yl)propyl]carbamoyl}-3-phenylquinoxalin-2-yl)pentanoic acid]
7.70 to 8.68 | – | Cc1cn(C2CCN(C(=O)c3ccc4nc(-c5ccccc5)c(CCCCC(=O)O)nc4c3)CC2)nn1 [15BQ, 5-(7-{[4-(4-methyl-1H-1,2-3-triazol-1-yl)piperidin-1-yl]carbonyl}-3-phenylquinoxalin-2-yl) pentanoic acid]
8.70 to 10.00 | 10.00 | Cc1cnnn1C1CCN(C(=O)c2ccc3nc(-c4ccccc4)c(CCCCC(=O)O)nc3c2)CC1 [15BR, 5-(7-{[4-(5-methyl-1H-1,2,3-triazol-1-yl)piperidin-1-yl]carbonyl}-3-phenylquinoxalin-2-yl)pentanoic acid]
7.70 to 8.68 | – | O=C(O)CCCCc1nc2cc(C(=O)N3CCC(c4cnccn4)CC3)ccc2nc1-c1ccccc1 [15BS, 5-{3-phenyl-7-[(4-pyrazin-2-ylpiperidin-1-yl)carbonyl]quinoxalin-2-yl}pentanoic acid]
8.70 to 10.00 | – | O=C(O)CCCCc1nc2cc(C(=O)NCc3cc(Cl)ccn3)ccc2nc1-c1ccccc1 [15BT, 5-(7-{[(4-chloropyridin-2-yl)methyl]carbamoyl}-3-phenylquinoxalin-2-yl)pentanoic acid]
8.70 to 10.00 | – | O=C(O)CCCCc1nc2cc(C(=O)NCc3cccc(Cl)n3)ccc2nc1-c1ccccc1 [15BU, 5-(7-{[(6-chloropyridin-2-yl)methyl]carbamoyl}-3-phenylquinoxalin-2-yl)pentanoic acid]
